Measurements from patent US9670193B2 (Novartis AG, priority 2011, dated 2017).

What was measured:
Format in all cases: biochemical
Details in all cases: 5 μM substrate, 2 hours at room temperature
Human recombinant HDAC4 = Human recombinant HDAC4 (Homo sapiens (Human), UniProt P56524); assay: HDAC4 assay (Test 1), fluorescence, acetyl-Gly-Ala-Lys(ε-trifluoroacetyl)-AMC substrate
Protocol: Test 1: HDAC4 Assay Description
(§1) Human recombinant HDAC4 was expressed in full length form (aa 2-1084) in Sf9 insect cells (obtained from ATCC) using baculovirus generated with Bac-to-Bac system (Invitrogen). Test compounds were serially diluted to reach final test concentrations from 0.000128 μM to 10 μM. HDAC4 and test compounds were incubated in 25 mM Tris buffer pH 8.0 containing 137 mM NaCl, 2.7 mM KCl, 1 mM MgCl2, 0.05% (w/v) bovine serum albumine and 0.005% (v/v) Triton-X-100 for 2 hours at room temperature in presence of 5 μM of acetyl-Gly-Ala-Lys(ε-trifluoroacetyl)-AMC (AMC=7-amino-4-methyl coumarin) in a final volume of 9 μl. Control wells with HDAC4 only (positive control) and without HDAC4 (negative control) were included on the microplate. Bovine trypsin (4.5 μl of a 300 nM solution) was added and the plate incubated for additional 15 minutes at room temperature. The plate was placed in a fluorescence microplate reader, and read at an excitation wavelength of 360 nm and an emission wavelength of 450 nm with a 10 nm bandpath. Fluorescence values for all wells containing HDAC4 (positive control and wells with test compound) were corrected by subtracting negative control fluorescence values, and IC50 values were calculated by fitting the dose-response curves to a 4-parameter logistic function.

[1] = target: Human recombinant full length HDAC1 (Homo sapiens (Human), UniProt Q13547); assay: HDAC1 assay (Test 2), acetyl-Gly-Ala-Lys(acetyl)-AMC substrate
Protocol: as §1
Test 2: HDAC1 Assay Description
A similar assay procedure as described in Test 1 was used for HDAC1. Human recombinant full length HDAC1 expressed in a baculovirus expression system was purchased from BPS BioSciences (San Diego, Calif., U.S.A.). The substrate used in the […] assay was 5 μM of acetyl-Gly-Ala-Lys(acetyl)-AMC.

[2] = target: Human recombinant full length HDAC6 (Homo sapiens (Human), UniProt Q9UBN7); assay: HDAC6 assay (Test 3), acetyl-Gly-Ala-Lys(acetyl)-AMC substrate
Protocol: as §1
Test 3: HDAC6 Assay Description
A similar assay procedure as described in Test 1 was used for HDAC6. Human recombinant full length HDAC6 expressed in a baculovirus expression system was purchased from BPS BioSciences (San Diego, Calif., U.S.A.). The substrate used in the […] assay was 5 μM of acetyl-Gly-Ala-Lys (acetyl)-AMC.

Human recombinant full length HDAC6, sequence (Q9UBN7 whole entry): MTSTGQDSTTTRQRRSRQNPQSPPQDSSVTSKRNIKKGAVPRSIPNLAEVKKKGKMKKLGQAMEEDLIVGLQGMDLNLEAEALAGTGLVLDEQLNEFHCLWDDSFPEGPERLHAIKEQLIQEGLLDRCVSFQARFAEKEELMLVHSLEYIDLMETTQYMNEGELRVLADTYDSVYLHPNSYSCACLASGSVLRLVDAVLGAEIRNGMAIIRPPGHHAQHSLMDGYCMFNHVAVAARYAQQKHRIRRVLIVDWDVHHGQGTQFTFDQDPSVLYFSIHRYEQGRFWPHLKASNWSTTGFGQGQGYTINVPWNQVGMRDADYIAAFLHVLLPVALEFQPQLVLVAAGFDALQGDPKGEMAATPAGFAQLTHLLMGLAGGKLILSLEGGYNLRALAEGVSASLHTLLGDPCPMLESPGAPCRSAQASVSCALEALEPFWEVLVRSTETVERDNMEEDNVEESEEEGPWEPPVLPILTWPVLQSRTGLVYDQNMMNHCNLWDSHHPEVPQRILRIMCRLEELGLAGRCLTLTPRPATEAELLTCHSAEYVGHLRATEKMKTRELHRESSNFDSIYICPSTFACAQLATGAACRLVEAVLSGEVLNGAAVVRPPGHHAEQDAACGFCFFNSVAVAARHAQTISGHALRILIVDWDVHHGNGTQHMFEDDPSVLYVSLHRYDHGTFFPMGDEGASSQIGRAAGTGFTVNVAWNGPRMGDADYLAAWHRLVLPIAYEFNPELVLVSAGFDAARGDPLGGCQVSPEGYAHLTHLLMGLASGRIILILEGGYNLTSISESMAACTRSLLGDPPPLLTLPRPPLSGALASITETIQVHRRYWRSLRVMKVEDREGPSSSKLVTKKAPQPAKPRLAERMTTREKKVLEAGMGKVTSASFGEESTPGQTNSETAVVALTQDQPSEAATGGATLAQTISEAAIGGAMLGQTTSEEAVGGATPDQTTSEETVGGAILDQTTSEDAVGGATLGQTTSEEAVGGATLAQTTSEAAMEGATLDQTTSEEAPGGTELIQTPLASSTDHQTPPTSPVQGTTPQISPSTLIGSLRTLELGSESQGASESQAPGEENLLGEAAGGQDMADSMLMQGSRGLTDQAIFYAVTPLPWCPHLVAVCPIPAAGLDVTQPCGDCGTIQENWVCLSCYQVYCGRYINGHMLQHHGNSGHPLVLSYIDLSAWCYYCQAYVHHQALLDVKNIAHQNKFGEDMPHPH
Human recombinant HDAC4, sequence (P56524 2-1084): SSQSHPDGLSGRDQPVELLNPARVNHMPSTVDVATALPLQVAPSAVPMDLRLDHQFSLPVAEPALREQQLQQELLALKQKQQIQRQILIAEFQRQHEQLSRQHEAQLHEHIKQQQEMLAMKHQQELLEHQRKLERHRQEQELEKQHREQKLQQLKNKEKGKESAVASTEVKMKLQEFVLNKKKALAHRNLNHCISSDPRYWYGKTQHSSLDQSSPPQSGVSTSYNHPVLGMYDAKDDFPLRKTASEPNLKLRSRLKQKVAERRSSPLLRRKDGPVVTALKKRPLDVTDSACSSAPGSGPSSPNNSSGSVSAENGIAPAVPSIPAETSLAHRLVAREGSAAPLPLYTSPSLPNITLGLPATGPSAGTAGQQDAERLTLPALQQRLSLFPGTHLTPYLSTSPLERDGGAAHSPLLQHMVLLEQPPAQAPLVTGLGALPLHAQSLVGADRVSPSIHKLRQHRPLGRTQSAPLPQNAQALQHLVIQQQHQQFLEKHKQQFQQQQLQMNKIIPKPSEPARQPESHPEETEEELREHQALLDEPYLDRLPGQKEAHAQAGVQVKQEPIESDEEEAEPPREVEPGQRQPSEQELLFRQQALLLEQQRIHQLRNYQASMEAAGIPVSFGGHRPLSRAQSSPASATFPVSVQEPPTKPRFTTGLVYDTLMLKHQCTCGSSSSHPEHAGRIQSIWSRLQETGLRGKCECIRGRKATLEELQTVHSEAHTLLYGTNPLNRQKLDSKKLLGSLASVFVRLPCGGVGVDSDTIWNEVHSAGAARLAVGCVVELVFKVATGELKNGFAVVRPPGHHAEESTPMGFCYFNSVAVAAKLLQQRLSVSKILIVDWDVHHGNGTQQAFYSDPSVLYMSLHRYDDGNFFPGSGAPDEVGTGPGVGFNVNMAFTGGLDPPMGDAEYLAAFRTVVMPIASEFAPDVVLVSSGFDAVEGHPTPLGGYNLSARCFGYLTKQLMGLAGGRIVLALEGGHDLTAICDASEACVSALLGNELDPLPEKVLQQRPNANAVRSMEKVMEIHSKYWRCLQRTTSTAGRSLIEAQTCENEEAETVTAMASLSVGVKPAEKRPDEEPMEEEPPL
Human recombinant full length HDAC1, sequence (Q13547 whole entry): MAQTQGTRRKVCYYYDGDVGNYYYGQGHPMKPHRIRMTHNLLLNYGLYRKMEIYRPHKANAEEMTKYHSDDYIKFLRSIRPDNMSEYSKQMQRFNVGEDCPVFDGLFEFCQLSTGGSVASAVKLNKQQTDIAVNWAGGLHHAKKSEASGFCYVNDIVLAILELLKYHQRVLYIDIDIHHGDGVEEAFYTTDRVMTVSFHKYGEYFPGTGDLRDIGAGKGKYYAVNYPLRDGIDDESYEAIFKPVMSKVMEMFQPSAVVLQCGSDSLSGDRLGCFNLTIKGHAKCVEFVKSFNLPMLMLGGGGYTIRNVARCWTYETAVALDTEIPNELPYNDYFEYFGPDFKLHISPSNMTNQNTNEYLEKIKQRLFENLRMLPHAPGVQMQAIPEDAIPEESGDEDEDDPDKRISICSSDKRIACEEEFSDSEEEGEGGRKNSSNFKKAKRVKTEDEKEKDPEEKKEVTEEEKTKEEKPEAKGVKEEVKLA

| IC50 (Human recombinant HDAC4) [nM] | IC50 [1] [nM] | IC50 [2] [nM] | Structure (SMILES) |
| --- | --- | --- | --- |
| 460 | > 10000 | 1700 | CC(=O)Nc1cnc(-c2noc(C(F)(F)F)n2)cn1 [Example 1, N-(5-(5-(trifluoromethyl)-1,2,4-oxadiazol-3-yl)pyrazin-2-yl)acetamide] |
| 1400 | > 10000 | 2600 | N#Cc1ccc(C(=O)Nc2cnc(-c3noc(C(F)(F)F)n3)cn2)cc1 [Example 2, 4-Cyano-N-(5-(5-(trifluoromethyl)-1,2,4-oxadiazol-3-yl)pyrazin-2-yl)benzamide] |
| 39 | 3200 | 6700 | CN(Cc1ccncc1)c1ncc(-c2noc(C(F)(F)F)n2)cn1 [Example 3, N-methyl-N-(pyridin-4-ylmethyl)-5-(5-(trifluoromethyl)-1,2,4-oxadiazol-3-yl)pyrimidin-2-amine] |
| 36 | > 10000 | 320 | FC(F)(F)c1nc(-c2cnc(NCc3ccccc3)nc2)no1 [Example 4, N-benzyl-5-(5-(trifluoromethyl)-1,2,4-oxadiazol-3-yl)pyrimidin-2-amine] |
| 40 | 1700 | 2100 | CN(Cc1ccnc(Cl)c1)c1ncc(-c2noc(C(F)(F)F)n2)cn1 [Example 5, N-((2-chloropyridin-4-yl)methyl)-N-methyl-5-(5-(trifluoromethyl)-1,2,4-oxadiazol-3-yl)pyrimidin-2-amine] |
| 44 | 620 | 990 | FC(F)(F)c1nc(-c2cnc(NCc3ccncc3)nc2)no1 [Example 6, N-(pyridin-4-ylmethyl)-5-(5-(trifluoromethyl)-1,2,4-oxadiazol-3-yl)pyrimidin-2-amine] |
| 120 | > 10000 | > 400 | CC(Nc1ncc(-c2noc(C(F)(F)F)n2)cn1)c1ccccc1 (stereo not drawn) [Example 7, N-(1-phenylethyl)-5-(5-(trifluoromethyl)-1,2,4-oxadiazol-3-yl)pyrimidin-2-amine] |
| 22 | 4100 | 560 | CC(Nc1ncc(-c2noc(C(F)(F)F)n2)cn1)c1ccncc1 (stereo not drawn) [Example 9, N-(1-(pyridin-4-yl)ethyl)-5-(5-(trifluoromethyl)-1,2,4-oxadiazol-3-yl)pyrimidin-2-amine] |
| 140 | 6600 | 1100 | FC(F)(F)c1nc(-c2cnc(NCc3cccnc3)nc2)no1 [Example 10, N-(pyridin-3-ylmethyl)-5-(5-(trifluoromethyl)-1,2,4-oxadiazol-3-yl)pyrimidin-2-amine] |
| 240 | 510 | 550 | Cc1cccc(CNc2ncc(-c3noc(C(F)(F)F)n3)cn2)n1 [Example 11, N-((6-methylpyridin-2-yl)methyl)-5-(5-(trifluoromethyl)-1,2,4-oxadiazol-3-yl)pyrimidin-2-amine] |
| 49 | 3500 | 340 | C[C@@H](Nc1ncc(-c2noc(C(F)(F)F)n2)cn1)c1ccccc1 [Example 12, (R)—N-(1-phenylethyl)-5-(5-(trifluoromethyl)-1,2,4-oxadiazol-3-yl)pyrimidin-2-amine] |
| 22 | 1700 | 140 | CC[C@@H](Nc1ncc(-c2noc(C(F)(F)F)n2)cn1)c1ccccc1 [Example 13, (R)—N-(1-phenylpropyl)-5-(5-(trifluoromethyl)-1,2,4-oxadiazol-3-yl)pyrimidin-2-amine] |
| 110 | 7600 | > 10000 | CN(CCc1ccncc1)c1ncc(-c2noc(C(F)(F)F)n2)cn1 [Example 14, N-methyl-N-(2-(pyridin-4-yl)ethyl)-5-(5-(trifluoromethyl)-1,2,4-oxadiazol-3-yl)pyrimidin-2-amine] |

| Structure (SMILES) | IC50 (Human recombinant HDAC4) [nM] | IC50 [1] [nM] | IC50 [2] [nM] |
| --- | --- | --- | --- |
| Cc1ccc(CNc2ncc(-c3noc(C(F)(F)F)n3)cn2)cn1 [Example 8, N-((6-methylpyridin-3-yl)methyl)-5-(5-(trifluoromethyl)-1,2,4-oxadiazol-3-yl)pyrimidin-2-amine] | 25 | 3000 | 250 |
